Assay results as given in paper PMC6719172, “Inhibition of CpLIP2 Lipase Hydrolytic Activity by Four Flavonols (Galangin, Kaempferol, Quercetin, Myricetin) Compared to Orlistat and Their Binding Mechanisms Studied by Quenching of Fluorescence” (Molecules, 2019).
Where two headings read alike, the source gives them in different places.

Key:
CpLIP2 lipase [1] = molecular target: T1, CpLIP2 lipase (Candida parapsilosis, UniProt Q8NIN8); experiment: Fluorescence resonance energy transfer between CpLIP2 and flavonols (Förster theory); assay type: binding; conditions: for E (energy transfer efficiency) / J (overlap integral) / R0 (Förster distance) / r (distance between acceptor and donor) / r/R0: 2.5 µM, 308 K, pH 7.0; on R0 (Förster distance): values in Å; on r (distance between acceptor and donor): values in Å
T1 sequence (Q8NIN8 entry or part of it): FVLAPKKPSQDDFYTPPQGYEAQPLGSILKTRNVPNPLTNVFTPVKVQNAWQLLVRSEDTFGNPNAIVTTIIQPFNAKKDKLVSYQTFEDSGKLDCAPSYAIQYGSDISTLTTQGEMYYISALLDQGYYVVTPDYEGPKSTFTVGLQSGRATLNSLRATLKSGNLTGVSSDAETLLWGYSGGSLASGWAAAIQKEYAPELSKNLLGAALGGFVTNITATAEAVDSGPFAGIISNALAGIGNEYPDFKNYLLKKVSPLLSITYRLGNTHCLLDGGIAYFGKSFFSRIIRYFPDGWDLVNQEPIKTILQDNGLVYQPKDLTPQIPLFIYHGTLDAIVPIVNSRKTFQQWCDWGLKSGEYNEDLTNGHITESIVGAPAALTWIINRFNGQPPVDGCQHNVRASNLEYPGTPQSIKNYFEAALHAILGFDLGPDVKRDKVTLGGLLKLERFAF
Source text: Fluorescence emission spectra of CpLIP2 lipase overlap the UV absorption spectrum of each flavonol studied, that may induce fluorescence resonance energy transfer (FRET) governed by the binding distance r between the protein behaving as energy donor and the flavonol energy acceptor. The binding distance r can be calculated via Förster theory with the following Equations (10) and (11):(10) E=1−F/ F0=R06/ R06+r^6 where E is the energy transfer efficiency, which is the photons fraction absorbed and transferred by the donor to the acceptor, F and F0 are the fluorescence intensities of donor (CpLIP2) in the presence or absence of acceptor (flavonol) at the same concentrations. The parameter r is the distance between acceptor and donor, and R0 is the Förster distance, which is the critical energy transfer distance when 50% of the excitation energy is transferred from the donor to the acceptor. […] The value of R0 ranges from 20–90 Å for biological macromolecules.

[2] = cited from earlier work
CpLIP2 lipase [3] = molecular target: T1, CpLIP2 lipase; experiment: Inhibition of CpLIP2 hydrolytic activity (ethyl oleate hydrolysis, GC); assay type: biochemical; conditions: for Ki: non-competitive or uncompetitive model
Method: The effect of inhibitor concentrations on the hydrolysis reaction rate in standard conditions was assumed to follow either a non-competitive or an uncompetitive model, corresponding to Equation (1):(1) Ki=I/ V0/Vi−1 where V0 and Vi are the initial rates of the reaction without or with inhibitor at concentration I.
Standard CpLIP2 hydrolytic activity measurement. Hydrolysis activities were determined by measuring the initial rates of fatty acid and esters production (µmol·min^−1·mL^−1), using ethyl oleate (C18:1, EE) as substrates. Specific activity is the total activity expressed in µmol·min^−1·mL^−1 in relation to protein concentration (mg·mL^−1). Experiments were conducted as described by. Hydrolysis of ethyl oleate (EO) was performed in aqueous emulsions at 30 °C. This emulsion consisted of 100 µmol·mL^−1 EO emulsified by sonication (Branson Sonifier 250, 20 s, 200 watts, 145 µm amplitude) in an aqueous solution of 20 g·L^−1 poly vinyl alcohol. The reactions of hydrolysis were prepared in glass test tube by adding 100 μL of ethyl oleate emulsion to 800 µL of sodium phosphate buffer 50 mM, pH 6.5; then the solutions were incubated in water bath at 30 °C for 5 min. The reaction was started by the addition of 100 µL of enzyme solution of CpLIP2 with final concentration 3 µg·mL^−1 with activity 2000 U/mL.
The enzyme solution was pre-incubated at 25 °C, with continuous stirring at 350 rpm. Pre-incubation was conducted with 1980 µL CpLIP2 lipase diluted in sodium NaH2PO4/Na2HPO4 phosphate buffer (50 mM, pH 6.5) containing 20 µL absolute EtOH at 2 different times (1 and 30 min). This pre-incubation phase was conducted in closed vials placed during 2 h on a Radleys StarFish Multi-Experiment Workstation. The reaction was conducted for 15 min at 30 °C, and then stopped by adding 950 µL of a mixture of ethanol/sulphuric acid (100:0.8, v/v). After the addition of 50 µL of internal standards (ethanolic solution of pentadecanoic acid and its ethyl and methyl esters, 1 µmol each), lipids were extracted from the mixture with 1 mL of hexane. Samples were then prepared for analyzing esters and free fatty acids by gas chromatography (GC) as follows. Hexane extract (200 µL) was reacted with 25 µL pyridine and 25 µL N-methyl-tri (methylsilyl)-trifluoroacetamide (MSTFA) as silylating agent. Mixtures were incubated in water bath at 50 °C for 20 min, and then samples were ready for analysis. Reaction rates were determined by the analysis of fat composition by capillary gas chromatography after 15 min reaction. It was checked that less than 30% of the total substrate was converted at the end of the 15 min reaction.
A Shimadzu GC 2010 plus gas chromatograph equipped with a flame ionization detector, an automatic sampler (injected volume 0.1 μL) and a split/splitless injector was used for analysis. The capillary column was a DB-5ht (15 m × 0.25 mm, Phenomenex, Le Pecq, France). The helium carrier flow was 1 mL min^−1and the split ratio was 1:50. Temperature conditions were, for reactions with individual substrates: injector 280 °C, detector 290 °C, oven 200–225 °C at 10 °C min^−1 then to 260 °C at 35 °C·min^−1 for ethyl ester (EE) and fatty acid (FA) of C18:1. Calibration curves were realized using emulsions of mixtures of FA and monoesters prepared according to the same protocol, without enzyme and alcohol.
In order to measure the residual lipase activity in the presence of potential inhibitors, the previous method was conducted in the presence and absence of the inhibitors. For each potential inhibitor, the lipase-catalyzed rate of hydrolysis was evaluated after a pre-incubation period between the lipase and the potential inhibitors, which were solubilized in absolute ethanol at 1% of final concentration. The preincubation was performed at 25 °C with continuous stirring at 350 rpm with different concentration of inhibitors (14, 27.5, 55 µM) which represented, respectively 25, 50, 100-fold the final lipase concentration (0.55 µM). […]

[4] = estimated after 30 min of pre-incubation
[5] = concentration not stated (14–55 µM tested), up to 30 min pre-incubation
[6] = read-out: inhibition of CpLIP2 activity

SMILES	percentage of transfer efficiency (CpLIP2 lipase [1]) [%]	E (energy transfer efficiency) (CpLIP2 lipase [1])	J (overlap integral) (CpLIP2 lipase [1])	R0 (Förster distance) (CpLIP2 lipase [1]) [Å]	r (distance between acceptor and donor) (CpLIP2 lipase [1]) [Å]	r/R0 (CpLIP2 lipase [1])	log10 P of partition between octanol and water phases [2]	log10D (octanol/water at pH 7.4) ([2]; pH 7.4)	Ki (CpLIP2 lipase [3]; [4]) [µM]	inhibition of CpLIP2 activity (CpLIP2 lipase [3]; after 1 min pre-incubation, concentration not given)	inhibition of CpLIP2 activity (CpLIP2 lipase [3]; [5])	inhibition of CpLIP2 activity (CpLIP2 lipase [3]; 55 µM (100-fold molar excess, highest concentration), pre-incubation time not stated, 55 µM) [%]	Ki (CpLIP2 lipase [3]; estimated after 1 min of pre-incubation) [µM]	inhibition at 27.5 µM (CpLIP2 lipase [3]; read-out: inhibition of CpLIP2 activity, 27.5 µM (50-fold lipase concentration), pre-incubation time not stated) [%]	inhibition at 55 µM (CpLIP2 lipase [3]; read-out: inhibition of CpLIP2 activity, 55 µM (100-fold molar excess, highest concentration), pre-incubation time not stated) [%]	inhibition at 14 µM (CpLIP2 lipase [3]; read-out: inhibition of CpLIP2 catalytic activity, 14 µM, within 1 min of pre-incubation) [%]	inhibitory effect relative to THL (times lower) (CpLIP2 lipase [3])	inhibition at 14 µM (CpLIP2 lipase [3]; [6]) [%]	inhibition at 27.5 µM (CpLIP2 lipase [3]; [6]) [%]	inhibition at 55 µM (CpLIP2 lipase [3]; [6]) [%]
O=c1c(O)c(-c2ccccc2)oc2cc(O)cc(O)c12 [GAL, galangin]	24	0.24	0.8 × 10^14 nm^4·cm^−1·M^−1	23.6	28.5	1.2	3.9	0.7	> 150	no inhibition	≤ 20%									
O=c1c(O)c(-c2ccc(O)cc2)oc2cc(O)cc(O)c12 [KAE, kaempferol]	12	0.12	10 × 10^14 nm^4·cm^−1·M^−1	36.0	50.1	1.4	3.5		6			90	4	> 80	92	80				
O=c1c(O)c(-c2cc(O)c(O)c(O)c2)oc2cc(O)cc(O)c12 [MYR, myricetin]	23	0.23	15 × 10^14 nm^4·cm^−1·M^−1	38.4	46.7	1.2	2.1		60		about 20%						about 100 times			
O=c1c(O)c(-c2ccc(O)c(O)c2)oc2cc(O)cc(O)c12 [QUE, quercetin]	6	0.06	12 × 10^14 nm^4·cm^−1·M^−1	36.9	58.7	1.6	2.9		80								about 100 times	37	39	35
